Results: article PMC4754833, “Rilpivirine analogs potently inhibit drug-resistant HIV-1 mutants” (Retrovirology, 2016)

Columns and labels:
[1] = system: HIV-1 RT mutant K101E/M184V; experiment: single round infection assay, K101E/M184V; format: cell-based; details: for fold-change of IC50 of the mutant relative to WT: K101E/M184V vs WT; for IC50: ± SD, n=4
Procedure: (§1) The human osteosarcoma cell line, HOS, was obtained from Dr. Richard Schwartz (Michigan State University, East Lansing, MI) and grown in Dulbecco’s modified Eagle’s medium (Invitrogen, Carlsbad, CA) supplemented with 5 % (v/v) fetal bovine serum, 5 % newborn calf serum, and penicillin (50 units/ml) plus streptomycin (50 µg/ml; Quality Biological, Gaithersburg, MD). Virion production and single-round infectivity assays were used to determine antiviral activity (IC50 values) of the compounds as previously described.
(§2) pNLNgoMIVR-ΔEnv.LUC has been described previously. The RT open reading frame was removed from pNLNgoMIVR-ΔEnv.LUC (digestion with SpeI and SalI) and inserted between the SpeI and SalI sites of pBluescript II KS+. Using that construct as the wild-type template, we prepared the following HIV-1 RT mutants using the QuikChange II XL (Stratagene, La Jolla, CA) site-directed mutagenesis protocol kit: L100I, K103N, Y181C, Y188L, H221Y, K103N/Y181C, G190A, G190S, M230L, P236L, L100I/K103N, K103N/P225H, V106A/G190A/F227L, V106A, L234I, V106A/F227L, V106A/L234I, V106A/F227L/L234I, E40K, D67E, K101E, V111A, E138K, M184I, M184V, K101E/M184I, K101E/M184V, E138K/M184I, E138K/M184V, K101P, Y181I, and K101P/V179I. The following sense oligonucleotides were used with matching cognate antisense oligonucleotides (not shown) (Integrated DNA Technologies, Coralville, IA) in the mutagenesis: L100I, 5′-[…]-3′; L100I 2-103, 5′-[…]-3′; K103N, 5′-[…]-3′; Y181C, 5′-[…]-3′; Y188L, 5′-[…]-3′; H221Y, 5′-[…]-3′; G190A, 5′-[…]-3′; G190S, 5′-[…]-3′; P225H, 5′-[…]-3′; F227, 5′-[…]-3′; M230L, 5′-[…]-3′; P236L, 5′-[…]-3′; V106A, 5′-[…]-3′; L234I, 5′-[…]-3′; E40K, 5′-[…]-3′; D67E, 5′-[…]-3′; K101E, 5′-[…]-3′; V111A, 5′-[…]-3′; E138K, 5′-[…]-3′; M184I, 5′-[…]-3′; M184V, 5′-[…]-3′; K101P, 5′-[…]-3′; Y181I, 5′-[…]-3′; K101P/V179I, 5′-[…]-3′. The double mutants K103N/Y181C, K103N/P225H, and L100I/K103N were made using the previously generated K103N mutant and the appropriate oligonucleotides to add the second mutation, Y181C, P225, and L100I respectively. The double mutants V106A/F227L and V106A/L234I were prepared using the previously generated V106A mutant and the appropriate oligonucleotides to add the second mutation, F227L and L234I, respectively. The double mutants K101E/M184I and K101E/M184V were constructed using the previously generated K101E mutant and the appropriate oligonucleotides to add the second mutation, M184I and M184V, respectively. The double mutants E138K/M184I and E138K/M184V were constructed using the previously generated E138K mutant and the appropriate oligonucleotides for the second mutation, M184I and M184V, respectively. The triple mutant V106A/F227L/L234I was made using the previously generated V106A/F227L double mutant and the appropriate oligonucleotides for the third mutation, L234I. The triple mutant V106A/G190A/F227L was constructed in a series of steps using the previously generated V106A mutant and the appropriate oligonucleotides for the second mutation, G190A, to generate the double mutant V106A/G190A, and then the triple mutant was made using double mutant V106A/G190A and oligonucleotides for the third mutation, F227L. The DNA sequence of each construct was verified by DNA sequence determination. The sequences encoding the mutant RTs were then subcloned into pNLNgoMIVR-ΔEnv.LUC (between the KpnI and SalI sites) to produce the mutant HIV-1 constructs. These DNA sequences were also checked independently by DNA sequence determination.
(§3) 10.1186/s12977-016-0244-2 The IC50 values (nM) of RPV and the RPV analogs were determined against the NNRTI resistant mutants were measured by using a single round infection assay, n = 4. The concentrations (nM) are measured by reductions in luciferase reporter activity followed by the standard deviations. […]

[2] = system: WT HIV-1; experiment: single round infection luciferase assay, WT HIV-1; format: cell-based; details: Human immunodeficiency virus 1
Procedure: as §1, §2, §3

[3] = system: HIV-1 RT mutant G190S; experiment: single round infection assay, G190S; format: cell-based; details: Human immunodeficiency virus 1
Procedure: as §1, §2, §3

[4] = system: HIV-1 RT mutant E138K/M184I; experiment: single round infection assay, E138K/M184I; format: cell-based; details: for fold-change of IC50 of the mutant relative to WT: E138K/M184I vs WT
Procedure: as §1, §2, §3

[5] = system: HIV-1 RT mutant Y181I; experiment: single round infection assay, Y181I; format: cell-based; details: for IC50: Human immunodeficiency virus 1; for fold-change of IC50 of the mutant relative to WT: Y181I vs WT
Procedure: as §1, §2, §3

[6] = system: HIV-1 RT mutant Y181C; design: method as in PMID 23217210; details: previous study; cited from earlier work
[7] = system: HIV-1 RT mutant D67E; experiment: single round infection assay, D67E; format: cell-based; details: for fold-change of IC50 of the mutant relative to WT: D67E vs WT; for IC50: ± SD, n=4
Procedure: as §1, §2, §3

[8] = system: HIV-1 RT mutant V106A/F227L; experiment: single round infection assay, V106A/F227L; format: cell-based; details: for fold-change of IC50 of the mutant relative to WT: V106A/F227L vs WT; for IC50: ± SD, n=4
Procedure: as §1, §2, §3

[9] = system: HIV-1 RT mutant H221Y; design: method as in PMID 23217210; details: previous study; cited from earlier work
[10] = system: HIV-1 RT mutant V106A/G190A/F227L; experiment: single round infection assay, V106A/G190A/F227L; format: cell-based; details: for IC50: Human immunodeficiency virus 1; for fold-change of IC50 of the mutant relative to WT: V106A/G190A/F227L vs WT
Procedure: as §1, §2, §3

[11] = system: HIV-1 RT mutant P236L; experiment: single round infection assay, P236L; format: cell-based; details: for IC50: Human immunodeficiency virus 1
Procedure: as §1, §2, §3

[12] = system: HIV-1 RT mutant V106A; experiment: single round infection assay, V106A; format: cell-based
Procedure: as §1, §2, §3

[13] = system: HIV-1 RT mutant V106A/F227L/L234I; experiment: single round infection assay, V106A/F227L/L234I; format: cell-based; details: V106A/F227L/L234I vs WT
Procedure: as §1, §2, §3

[14] = system: HIV-1 RT mutant E40K; experiment: single round infection assay, E40K; format: cell-based; details: Human immunodeficiency virus 1, E40K; ± SD, n=4
Procedure: as §1, §2, §3

[15] = Human immunodeficiency virus 1, D67E
[16] = Human immunodeficiency virus 1, K101E/M184V

SMILES | fold-change of IC50 of the mutant relative to WT [1] | IC50 [2] [nM] | IC50 [3] [nM] | fold-change of IC50 of the mutant relative to WT [4] | IC50 [5] [nM] | fold-change of IC50 of the mutant relative to WT [5] | IC50 [6] [nM] | fold-change of IC50 of the mutant relative to WT [7] | IC50 [7, 15] [nM] | fold-change of IC50 of the mutant relative to WT [8] | IC50 [9] [nM] | IC50 [10] [nM] | fold-change of IC50 of the mutant relative to WT [10] | IC50 [11] [nM] | IC50 [1, 16] [nM] | fold-change of IC50 of the mutant relative to WT [13] | other results
Cc1cc(/C=C/C#N)cc(C)c1Nc1nc(Nc2ccc(C#N)cc2)c2nc[nH]c2n1 [compound 13] | 2 | 0.26 ± 0.04 | 0.12 | 3 | 1.2 | 5 | < 7 | 6 | < 2.5 | < 2 | < 7 | 0.5 ± 0.2 | < 2 | 0.31 ± 0.02 | – | – | IC50 ([7]; D67E): 1.6 ± 0.4 nM; fold-change of IC50 of the mutant relative to WT ([11]; P236L vs WT): < 2
Cc1cc(/C=C/C#N)cc(C)c1Nc1nc(Nc2ccc(C(F)(F)F)cc2)c2nc[nH]c2n1 [compound 15] | 2 | 1.7 ± 0.3 | 0.35 ± 0.05 | < 2 | 50.2 | 30 | < 7 | 8 | 13.1 | – | < 7 | 2.6 ± 0.17 | < 2 | 0.9 ± 0.08 | < 6 | – | IC50 ([1]; K101E/M184V): 3.8 ± 0.42 nM; fold-change of IC50 of the mutant relative to WT ([12]; V106A vs WT): < 2
Cc1cc(/C=C/C#N)cc(C)c1Nc1ncc2ncn(-c3ccc(C#N)cc3)c2n1 [compound 26] | < 2 | 7.7 | 2.1 | 3 | > 100 | – | – | 8 | 62.3 ± 1.3 | 8 | – | 46.2 ± 11.1 | 6 | 2.91 | 9.1 ± 0.1 | 5 | IC50 ([12]; Human immunodeficiency virus 1, V106A (selected by DOR), ± SD, n=4): 4.9 ± 1.3 nM; IC50 ([4]; Human immunodeficiency virus 1, E138K/M184I, ± SD, n=4): 24.5 ± 4.8 nM; IC50 [14]: 4.2 ± 0.8 nM
Cc1cc(/C=C/C#N)cc(C)c1-n1cnc2cnc(Nc3ccc(C#N)cc3)nc21 [compound 27] | < 2 | 0.58 ± 0.24 | 0.1 ± 0.01 | < 2 | 23.1 | 40 | < 7 | 2 | – | 5 | < 7 | 2.2 ± 1.2 | 4 | 0.2 ± 0.04 | – | < 2 | IC50 ([8]; Human immunodeficiency virus 1, V106A/F227L (selected by DOR)): < 5 nM; IC50 ([8]; V106A/F227L (selected by DOR)): 2.9 ± 0.3 nM
